# In patent US20020151678A1, “Prophylaxis and therapy of acquired immunodeficiency syndrome” (Board of Regents, The University of Texas System., priority 1987, published 2002):
# “Also recorded” adds a separate entry of the source.
# Legend:
# [1] = test system: BALB/c mice; assay: ELISA for anti-peptide antibody response in sera of immunized BALB/c mice; assay type: in vivo; conditions: high molecular weight (multimer) forms
# [2] = test system: native HIV envelope protein gp160; conditions: disulfide (di-Cys) polymeric form
# From the text: FIG. 6 contains two panels of graphs that illustrate B6C3 F1 mouse PLN cell proliferation by ^3H-TdR incorporation as described before using varying concentrations of peptide multimer and gp120 as antigens. […] PPD and unrelated peptide were used as controls. A further discussion relating to FIGS. 6-8 is found hereinafter.
# The cells were harvested onto filter strips and ^3H-TdR incorporation was monitored.
# T cell proliferation measured by ^3H-TdR incorporation, was also similarly assayed as a function of the T cell antigen concentration, using various amounts of native gp120 or gp160 as one control, and PPD as another control. PLN from B6C3 F1 mice were used in these studies.
Sequence,anti-peptide antibody response (in words) [1],T cell response directed against the corresponding peptide and native HIV envelope protein gp160 [2]
FLGFLGAAGSTMGAASLTLTVQANQ [Peptide 63],very low to negligible amounts of anti-peptide antibodies; also recorded: do not stimulate anti-peptide antibody production,strong T cell response
"GTGPCTNVSTVQC [Peptide 116, gp160 CR-2, residues 240-252]",very low to negligible amounts of anti-peptide antibodies,
"LWDQSLKPCVKLT [Peptide 111, gp160 CR-1, residues 118-131]",very low to negligible amounts of anti-peptide antibodies,
SVITQACSKVSFE [Peptide 113],very low to negligible amounts of anti-peptide antibodies; also recorded: do not stimulate anti-peptide antibody production,strong T cell response
VYYGVPVWKEA [Peptide 104],very low to negligible amounts of anti-peptide antibodies; also recorded: do not stimulate anti-peptide antibody production,strong T cell response
YLRDQQLLGIWGC [Peptide 61],very low to negligible amounts of anti-peptide antibodies; also recorded: do not stimulate anti-peptide antibody production,strong T cell response
